{"source": "patent US8067364B2", "about": "“Deer antler extract for promoting angiogenesis” (Velvet Antler Research New Zealand Limited (VARNZ), priority 2003, dated 2011)", "origin": "cited, not measured here", "key": {"wounds": {"test_system": "wounds", "details": "delivered by gene therapy, local sustained delivery; literature"}, "[1]": {"test_system": "endothelial cells, wounds", "details": "literature"}}, "note": "No end group written: not given here.", "data": [{"substance": "VEGF", "values": [{"measurement": "angiogenesis and wound healing", "setting": "wounds", "value": "cause angiogenesis and enhanced wound healing"}]}, {"substance": "Thymosin α1: peptide of the Thymosin family, potential wound healing agent (Ac-SDAAVDTSSEITTKDLKEKKEVVEEAEN; ends and bridges not checked; UniProt P06454 2-29, looked up)", "values": [{"measurement": "endothelial cell migration, angiogenesis, and wound healing", "setting": "[1]", "value": "stimulates endothelial cell migration, angiogenesis, and wound healing"}]}]}
